Source: patent US12264134B2 (Merck Sharp & Dohme LLC, priority 2018, dated 2025)

Tests used:
IDO1 [1] = molecular target: T1, IDO1 (Homo sapiens, UniProt P14902); experiment: IDO1 Human Whole blood Assay; assay type: cell-based; design: Human whole blood was drawn in sodium heparin coated tubes from healthy internal donors; from tissue; host or cells: human whole blood from healthy donors, stimulated with LPS and IFNγ; conditions: LPS and IFNγ stimulated, 18 h, read-out: Human Whole Blood Potency, IC50
Method in brief: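 LC/MS/MS of kynurenine, normalized to spiked isotope-labeled standard (3 μM final), served as the readout. Beforehand, fresh human blood with compound (15 min preincubation) was stimulated overnight (18 h, 37 °C) with 100 ng/mL LPS/IFNγ. IC50 was obtained by four-parameter curve fitting.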

IDO1 [2] = molecular target: T1, IDO1; experiment: IDO1 Cellular Assay in HeLa Cells Stimulated with IFNγ; assay type: cell-based; conditions: read-out: HeLa Cell Potency, IC50

T1 sequence (P14902 whole entry): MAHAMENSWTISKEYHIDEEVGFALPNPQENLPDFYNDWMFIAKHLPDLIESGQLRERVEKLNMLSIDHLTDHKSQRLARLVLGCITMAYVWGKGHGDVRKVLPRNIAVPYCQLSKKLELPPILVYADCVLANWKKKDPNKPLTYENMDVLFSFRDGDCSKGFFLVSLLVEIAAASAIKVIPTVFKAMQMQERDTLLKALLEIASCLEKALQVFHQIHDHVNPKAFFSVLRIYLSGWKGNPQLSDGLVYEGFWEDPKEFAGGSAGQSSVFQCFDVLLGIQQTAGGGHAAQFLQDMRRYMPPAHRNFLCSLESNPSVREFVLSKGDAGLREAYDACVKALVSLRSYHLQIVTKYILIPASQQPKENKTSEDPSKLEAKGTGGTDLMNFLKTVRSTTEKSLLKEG

IC50 (IDO1 [1]) [nM] | IC50 (IDO1 [2]) [nM] | SMILES
37 | 1.37 | Cc1cccc(N2CCN(C(=O)Cn3nc(C(=O)N4CCC(OCCO)CC4)c4c3CCCC4)CC2)c1C [Example 463, 1-(4-(2,3-dimethylphenyl)piperazin-1-yl)-2-(3-(4-(2-hydroxyethoxy)piperidine-1-carbonyl)-4,5,6,7-tetrahydro-1H-indazol-1-yl)ethanone]
180 | 1.95 | Cc1cccc(N2CCN(C(=O)Cn3nc(C(=O)N4CC[C@H](O)[C@H](F)C4)c4c3C[C@H]3C[C@@H]43)CC2)c1C [Example 289, 1-[4-(2,3-dimethylphenyl)piperazin-1-yl]-2-{(3bR,4aR)-3-[(3R,4S)-3-fluoro-4-hydroxypiperidine-1-carbonyl]-3b,4,4a,5-tetrahydro-1H-cyclopropa[3,4]cyclopenta[1,2-c]pyrazol-1-yl}ethan-1-one]
1240 | 6.12 | COCCN1[C@H](C)CN(C(=O)c2nn(CC(=O)N3CCN(c4cccc(C)c4C)CC3)c3c2CCC3)C[C@@H]1C [Example 172, 1-[4-(2,3-dimethylphenyl)piperazin-1-yl]-2-{3-[(3R,5S)-4-(2-methoxyethyl)-3,5-dimethylpiperazine-1-carbonyl]-5,6-dihydrocyclopenta[c]pyrazol-1(4H)-yl}ethan-1-one]
516 | 5.91 | Cc1cccc(N2CCN(C(=O)Cn3nc(C(=O)N4CC[C@@H](O)C(F)(F)C4)c4c3CCC4)CC2)c1C (single isomer, unassigned) [Example 202, 2-[3-[(4R or 4S)-3,3-difluoro-4-hydroxy-piperidine-1-carbonyl]-5,6-dihydro-4H-cyclopenta[c]pyrazol-1-yl]-1-[4-(2,3-dimethylphenyl)piperazin-1-yl]ethanone]
131 | 1.65 | Cc1c(N2CCN(C(=O)Cn3nc(C(=O)N4CCC(O)CC4)c4c3C[C@H]3C[C@@H]43)CC2)cccc1C(F)(F)F [Example 338, 2-((3bR,4aR)-3-(4-hydroxypiperidine-1-carbonyl)-3b,4,4a,5-tetrahydro-1H-cyclopropa[3,4]cyclopenta[1,2-c]pyrazol-1-yl)-1-(4-(2-methyl-3-(trifluoromethyl)phenyl)piperazin-1-yl)ethanone]
454 | 2.96 | Cc1cccc(N2CCN(C(=O)Cn3nc(C(=O)N4CCN(S(=O)(=O)N(C)C)CC4)c4c3CCC4)CC2)c1C [Example 89, 4-(1-{2-[4-(2,3-dimethylphenyl)piperazin-1-yl]-2-oxoethyl}-1,4,5,6-tetrahydrocyclopenta[c]pyrazole-3-carbonyl)-N,N-dimethylpiperazine-1-sulfonamide]
154 | 1.2 | Cc1cccc(N2CCN(C(=O)Cn3nc(C(=O)N4CC[C@H](O)[C@H](C)C4)c4c3CCC4)CC2)c1C [Example 107, 1-[4-(2,3-dimethylphenyl)piperazin-1-yl]-2-{3-[(3R,4S)-4-hydroxy-3-methylpiperidine-1-carbonyl]-5,6-dihydrocyclopenta[c]pyrazol-1(4H)-yl}ethan-1-one]
68 | 2.82 | Cc1cccc(N2CCN(C(=O)Cn3nc(C(=O)N4CCN(CC(N)=O)CC4)c4c3CCCC4)CC2)c1C [Example 454, 2-(4-(1-(2-(4-(2,3-dimethylphenyl)piperazin-1-yl)-2-oxoethyl)-4,5,6,7-tetrahydro-1H-indazol-3-carbonyl)piperazin-1-yl) acetamide]
543 | 7.99 | Cc1cccc(N2CCN(C(=O)Cn3nc(C(=O)N4C[C@@H](C)O[C@@H](C)C4)c4c3C3CC3C4)CC2)c1C (stereo partly drawn) [Example 449, 2-(3-((2R,6S)-2,6-dimethylmorpholine-4-carbonyl)-4,4a,5,5a-tetrahydro-1H-cyclopropa[4,5]cyclopenta[1,2-c]pyrazol-1-yl)-1-(4-(2,3-dimethylphenyl)piperazin-1-yl)ethanone]
4070 | 1.38 | Cc1cccc(N2CCN(C(=O)Cn3nc(C(=O)N4CCC(O)CC4)c4c3C[C@H]3C[C@@H]43)[C@@H](C)C2)c1C [Example 334, 1-[(2S)-4-(2,3-dimethylphenyl)-2-methylpiperazin-1-yl]-2-[(3bR,4aR)-3-(4-hydroxypiperidine-1-carbonyl)-3b,4,4a,5-tetrahydro-1H-cyclopropa[3,4]cyclopenta[1,2-c]pyrazol-1-yl]ethan-1-one]
904 | 7.2 | Cc1cccc(N2CCN(C(=O)Cn3nc(C(=O)N4CCC(O)C(F)C4)c4c3CCC4)C3(CC3)C2)c1C (single isomer, unassigned) [Example 394, 1-(7-(2,3-dimethylphenyl)-4,7-diazaspiro[2.5]octan-4-yl)-2-(3-(3-fluoro-4-hydroxypiperidine-1-carbonyl)-5,6-dihydrocyclopenta[c]pyrazol-1(4H)-yl)ethanone]
934 | 11.1 | Cc1cccc(N2CCN(C(=O)Cn3nc(C(=O)N4CCCC4)c4c3CCC(F)C4)CC2)c1C (single isomer, unassigned) [Example 7, 1-(4-(2,3-dimethylphenyl)piperazin-1-yl)-2-(5-fluoro-3-(pyrrolidine-1-carbonyl)-4,5,6,7-tetrahydro-1H-indazol-1-yl)ethanone]
61 | 5.53 | Cc1cccc(N2CCN(C(=O)Cn3nc(C(=O)N4CCC(O)(CF)CC4)c4c3CCCC4)CC2)c1C [Example 477, 1-(4-(2,3-dimethylphenyl)piperazin-1-yl)-2-(3-(4-(fluoromethyl)-4-hydroxypiperidine-1-carbonyl)-4,5,6,7-tetrahydro-1H-indazol-1-yl)ethanone]
1000 | 5 | Cc1cccc(N2CCN(C(=O)Cn3nc(C(=O)N4C[C@@H](C)O[C@@H](C)C4)c4c3CCC4)C3(CC3)C2)c1C [Example 391, 2-(3-((2S,6R)-2.6-dimethylmorpholine-4-carbonyl)-5,6-dihydrocyclopenta[c]pyrazol-1(4H)-yl)-1-(7-(2,3-dimethylphenyl)-4.7-diazaspiro[2.5]octan-4-yl)ethanone]
300 | 2.61 | COC1CCN(C(=O)c2nn(CC(=O)N3CCN(c4cccc(C)c4C)CC3)c3c2CCC3)CC1 [Example 126, 1-[4-(2,3-dimethylphenyl)piperazin-1-yl]-2-[3-(4-methoxypiperidine-1-carbonyl)-5,6-dihydrocyclopenta[c]pyrazol-1(4H)-yl]ethan-1-one]
345 | 2.46 | Cc1cccc(N2CCN(C(=O)Cn3nc(C(=O)N4CC[C@H](O)[C@@H](C)C4)c4c3CCC4)CC2)c1C [Example 94, 1-[4-(2,3-dimethylphenyl)piperazin-1-yl]-2-{3-[(3S,4S)-4-hydroxy-3-methylpiperidine-1-carbonyl]-5,6-dihydrocyclopenta[c]pyrazol-1(4H)-yl}ethan-1-one]
802 | 3.87 | Cc1cccc(N2CCN(C(=O)Cn3nc(C(=O)N4CC[C@@H](O)[C@@H](C)C4)c4c3CCC4)CC2)c1C [Example 106, 1-[4-(2,3-dimethylphenyl)piperazin-1-yl]-2-{3-[(3S,4R)-4-hydroxy-3-methylpiperidine-1-carbonyl]-5,6-dihydrocyclopenta[c]pyrazol-1(4H)-yl}ethan-1-one]
